# In patent US10463730B2 (priority 2003, dated 2019):
# Test system: xenogeneic GI-101A solid breast carcinoma tumors
# Design: species or system nu-/nu-mice
# Details: in vivo
smiles,measurement,value
"Nc1nc2c(ncn2COC(CO)CO)c(=O)[nH]1 [PBS+GCV, gancyclovir]",Increase of average volume of tumors,91.8%
